Test results as given in patent US11059795B2, “Androgen receptor modulators and methods for their use” (ESSA Pharma, Inc., priority 2018, dated 2021).

Columns and labels:
Format in all cases: in vitro ADME
[1] = Microsomal stability assay, mouse liver microsomes; conditions: for microsomal CLint at 1 μM: mouse, liver microsomes, pH 7.4, mouse liver microsomes, 1 μM compound, 0.5 mg/mL protein, 37° C., read-out: MLM +30/− NADPH: Clint (μL/min/mg protein); for half-life at 1 μM: pH 7.4, mouse liver microsomes, read-out: Liver microsome T½ (min) Mouse
Outline: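 Compound at 1 μM was incubated at 37° C with 0.5 mg/mL liver microsomes and 1 mM NADPH and/or 1 mM UDPGA (with alamethicin) in 100 mM potassium phosphate pH 7.4, 3 mM MgCl2. Samples were taken at 0, 15, 30 and 60 min and measured by LC/MS/MS. t½ came from compound loss relative to 0 min, and Clint was scaled with 45 mg microsomal protein/g liver.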

[2] = Hepatocyte stability assay, mouse hepatocytes; conditions: cryopreserved hepatocytes; for hepatocyte CLint at 1 μM: mouse, 1 μM compound, 0.5 million cells/mL, 37° C., read-out: MH +/− NADPH: Clint (μL/min/million cells); for half-life at 1 μM: read-out: Hepatocytes T½ (min) Mouse
Outline: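 Cryopreserved rat, human or mouse hepatocytes at 0.5 million cells/mL in DMEM with 1 μM compound, 37° C, sampled at 0, 60, 120 and 180 min and quenched with acetonitrile/formic acid. Parent loss vs 0-min by LC/MS/MS gave t½, and Clint = 0.693/t½ × mL incubation/million cells.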

[3] = Microsomal stability assay, rat liver microsomes; conditions: pH 7.4, read-out: Liver microsome T½ (min) Rat
Experimental: (§1) Microsomal stability assay is a widely used in vitro model to characterize the metabolic conversion by phase I enzymes, such as cytochrome P450 (CYP) enzymes. Since metabolism is known to be highly variable in different species, microsomal stability assay is commonly run in multiple species. Metabolic stability of testing compound can be evaluated using human, rat, mouse, or other animal liver or intestine microsomes to predict intrinsic clearance.
(§2) The assay was carried out in 96-well microtiter plates at 37° C. Reaction mixtures (25 μL) contained a final concentration of 1 μM test compound, 0.5 mg/mL liver microsomes protein, and 1 mM NADPH and/or 1 mM UDPGA (with alamethicin) in 100 mM potassium phosphate, pH 7.4 buffer with 3 mM MgCl2. The incubation was done with N=1, but duplicate incubation at each time point can be prepared if necessary. At each of the time points (for example, 0, 15, 30, and 60 minutes), 150 μL of quench solution (100% acetonitrile with 0.1% formic acid) with internal standard was transferred to each well. Besides the zero minute controls, mixtures containing the same components except the NADPH can also be prepared as the negative control. Verapamil was included as a positive control to verify assay performance. Plates were sealed, vortexed, and centrifuged at 4° C. for 15 minutes at 4000 rpm. The supernatant is transferred to fresh plates for LC/MS/MS analysis.
(§3) Summarized conditions: [Compound]=[…], [LM]=0.5 mg/mL, [NADPH]=1 mM and/or [UDPGA]=1 mM, Buffer=100 mM Potassium Phosphate, pH 7.4 with 3 mM MgCl2, Time=0, 15, 30, and 60 min, and Temperature=37° C.
(§4) All samples were analyzed on LC/MS/MS using an AB Sciex API 4000 instrument, coupled to a Shimadzu LC-20AD LC Pump system. Analytical samples were separated using a Waters Atlantis T3 dC18 reverse phase HPLC column (20 mm×2.1 mm) at a flow rate of 0.5 mL/min. The mobile phase consisted of 0.1% formic acid in water (solvent A) and 0.1% formic acid in 100% acetonitrile (solvent B).
(§5) The extent of metabolism is calculated as the disappearance of the test compound, compared to the 0-min time incubation. Initial rates are calculated for the compound concentration and used to determine half-life (t½) values and subsequently, the intrinsic clearance (Clint). Clint=(0.693)(1/t½ (min))(g of liver/kg of body weight)(mL incubation/mg of microsomal protein)(45 mg of microsomal protein/g of liver weight)

[4] = Microsomal stability assay, monkey liver microsomes; conditions: pH 7.4, read-out: Liver microsome T½ (min) Monkey
Experimental: as §1, §2, §3, §4, §5

[5] = Hepatocyte stability assay, human hepatocytes; conditions: cryopreserved hepatocytes, read-out: Hepatocytes T½ (min) Human
Excerpt: (§6) The […] of in vitro intrinsic clearance (Clint) for drug candidates in the early discovery stage is common practice in the pharmaceutical industry. The Clint values of drug candidates can help to confirm whether metabolism is the main clearance pathway when it is compared with the total body clearance in vivo. Hepatocytes are among the routinely used in vitro systems for measuring clearance. Hepatocytes have been reported to retain most of the phase I and phase II metabolic activities, and therefore, it is a useful tool to estimate the intrinsic clearance for potential drug candidates.
(§7) Metabolic stability of testing compound were be evaluated using human and mouse hepatocytes and can also be use rat, mouse, or other animal hepatocytes to predict intrinsic clearance. Cryopreserved hepatocytes were removed from the liquid nitrogen tank and thawed in a 37° C. water bath. As soon as the cells pulled away from the vial wall, they were decanted into 48 ml of warm HT medium. Cells were centrifuged for four minutes at 420 rpm (50 g). After removing the supernatant, pellet was re-suspended in warm DMEM medium. Cell density was counted by a hemacytometer.
(§8) The assay was carried out in 96-well microtiter plates. Compounds were incubated for 0, 60, 120, and 180 minutes at 37° C. with hepatocytes. Reaction mixtures (50 μL) contained a final concentration of 1 μM test compound, 0.5 million cells/mL hepatocytes in the DMEM medium. At each of the time points (for example, 0, 1, 2, and 3 hours), 200 μL of quench solution (100% acetonitrile with 0.1% formic acid) with internal standard was transferred to each well. Midazolam was included as a positive control to verify assay performance. Plates were sealed and centrifuged at 4° C. for 15 minutes at 4000 rpm. The supernatant is transferred to fresh plates for LC/MS/MS analysis.
(§9) Summarized conditions (customizable): [Compound]=[…], Positive control: midazolam and/or naloxone, [Hepatocyte]=0.5 million cells/Ml, time=0, 60, 120, and 180 min, t=37° C.
as §4
(§10) The extent of metabolism was calculated as the disappearance of the test compound, compared to the 0-min control reaction incubations. Initial rates were calculated for the compound concentration and used to determine t½ values and subsequently, the intrinsic clearance, Clint. Clint=(0.693)(1/t½(min))(mL incubation/million cells)

[6] = Hepatocyte stability assay, rat hepatocytes; conditions: cryopreserved hepatocytes, read-out: Hepatocytes T½ (min) Rat
Excerpt: as §6, §7, §8, §9, §4, §10

| microsomal CLint at 1 μM [1] [µL/min/mg] | hepatocyte CLint at 1 μM [2] [µL/min/1e6 cells] | half-life at 1 μM [1] [min] | half-life at 1 μM [3] [min] | half-life at 1 μM [4] [min] | half-life at 1 μM [2] [min] | half-life at 1 μM [5] [min] | half-life at 1 μM [6] [min] | SMILES |
| --- | --- | --- | --- | --- | --- | --- | --- | --- |
| < 12 | < 4 |  |  |  |  |  |  | CCS(=O)(=O)Nc1nccc(COc2ccc(C(C)(C)c3cc(Cl)c(OCCCl)c(C#N)c3)cc2)n1 [Compound A131] |
| < 12 | < 4 |  |  |  |  |  |  | C[C@H](Oc1ccc(C(C)(C)c2cc(Cl)c(OCCCl)c(C#N)c2)cc1)c1ccnc(NS(C)(=O)=O)n1 (single isomer, unassigned) [Compound A170] |
| < 12 | < 4 | > 120 | 83 | 101 | > 360 | > 360 | 94 | CC(C)(c1ccc(OCc2ncc(S(C)(=O)=O)s2)cc1)c1cc(Cl)c(OCCCl)c(C#N)c1 [Compound A93, 3-chloro-2-(2-chloroethoxy)-5-(2-(4-((5-(methylsulfonyl)thiazol-2-yl)methoxy)phenyl)propan-2-yl)benzonitrile] |
| 12 to 48 | 4 to 18 |  |  |  |  |  |  | Cc1cnc(NS(C)(=O)=O)nc1COc1ccc(C(C)(C)c2cc(Cl)c(OCCCl)c(C#N)c2)cc1 [Compound A122, N-(4-((4-(2-(3-Chloro-4-(2-chloroethoxy)-5-cyanophenyl)propan-2-yl)phenoxy)methyl)-5-methylpyrimidin-2-yl)methanesulfonamide] |
| < 12 | 4 to 18 | > 120 | 64 | > 120 | 203 | 290 | 75 | CC(C)(c1ccc(OCc2ocnc2S(C)(=O)=O)cc1)c1cc(Cl)c(OCCCl)c(Cl)c1 [Compound A13, 5-((4-(2-(3,5-dichloro-4-(2-chloroethoxy)phenyl)propan-2-yl)phenoxy)methyl)-4-(methylsulfonyl)oxazole] |
| < 12 | < 4 | > 120 | > 120 | > 120 | > 360 | > 360 | > 360 | CC(C)(c1ccc(OCc2ccnc(NS(C)(=O)=O)n2)cc1)c1cc(Cl)c(OCCCl)c(C#N)c1 [Compound A109, N-(4-((4-(2-(3-chloro-4-(2-chloroethoxy)-5-cyanophenyl)propan-2-yl)phenoxy)methyl)pyrimidin-2-yl)methanesulfonamide] |
|  |  |  |  |  | 33 | > 360 |  | CC(C)(c1ccc(OC[C@H](O)CNS(C)(=O)=O)cc1)c1cc(Cl)c(OC[C@H](O)CCl)c(Cl)c1 [X, reference compound] |
| 12 to 48 | 4 to 18 |  |  |  |  |  |  | CC(C)(c1ccc(OCc2nc(S(C)(=O)=O)cs2)cc1)c1cc(Cl)c(OCCCl)c(C#N)c1 [Compound A136, 3-Chloro-2-(2-chloroethoxy)-5-(2-(4-((4-(methylsulfonyl)thiazol-2-yl)methoxy)phenyl)propan-2-yl)benzonitrile] |
| < 12 |  | > 120 | > 120 | > 120 |  | > 360 | > 360 | CC(C)(c1ccc(OCc2ccnc(NS(C)(=O)=O)n2)cc1)c1cc(Cl)c(OCCCl)c(Cl)c1 [Compound A74, N-(4-((4-(2-(3,5-dichloro-4-(2-chloroethoxy)phenyl)propan-2-yl)phenoxy)methyl)pyrimidin-2-yl)methanesulfonamide] |
| 12 to 48 | 4 to 18 | 74 | 23 | 73 | 86 | > 360 | 31 | CC(C)(c1ccc(OCc2ocnc2S(C)(=O)=O)cc1)c1cc(Cl)c(OCCCl)c(C#N)c1 [Compound A28, 3-chloro-2-(2-chloroethoxy)-5-(2-(4-((4-(methylsulfonyl)oxazol-5-yl)methoxy)phenyl)propan-2-yl)benzonitrile] |
| < 12 | < 4 |  |  |  |  |  |  | CCS(=O)(=O)Nc1nc(COc2ccc(C(C)(C)c3cc(Cl)c(OCCCl)c(C#N)c3)cc2)co1 [Compound A126] |
| < 12 | < 4 | > 120 | 12 | > 120 | > 360 | > 360 | 56 | CC(C)(c1ccc(OCc2coc(NS(C)(=O)=O)n2)cc1)c1cc(Cl)c(OCCCl)c(Cl)c1 [Compound A38, N-(4-((4-(2-(3,5-dichloro-4-(2-chloroethoxy)phenyl)propan-2-yl)phenoxy)methyl)oxazol-2-yl)methanesulfonamide] |
